The results in this text go back to the supplement of paper PMC10307832.

What all share (assay): relative viability (nuclei count vs DMSO), 5 days (fraction); higher = more cells survive
Compound in experiment [1]: COC1=CC=C(C=C1)CN2C=CC3=C2C=C(C=C3)C(=O)NO
The method in brief:
(§1)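 Lung cancer cell lines were seeded into 1536-well plates, kept overnight at 37 °C and pinned with five library-drug doses (not always all listed) spaced by √10. After 5 days, nuclei were Hoechst-stained, imaged at 4× and counted with MetaXpress. Viability is treated-well nuclei over vehicle-well nuclei, taken as a median across plates. Plates needed control CV below 25% and at least one doubling.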

Compound in the next experiment: C[C@]1(c2nc3c(C(N)=O)cccc3[nH]2)CCCN1 [Veliparib]
In a few lines: as §1

Compound in experiment [2]: COC1=CC=C(C=C1)CN2C=CC3=C2C=C(C=C3)C(=O)NO + COc1cc2c(Oc3ccc(NC(=O)C4(C(=O)Nc5ccc(F)cc5)CC4)cc3F)ccnc2cc1OCCCN1CCOCC1 [Foretinib] (partner 0.25 µM)
The method in brief:
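Relative viability is defined as nuclei in treated wells over nuclei in vehicle wells. Duplicate plates were run and medians reported. Lung cancer cell lines in 1536-well plates were dosed by pin tool one day after seeding, with one drug or with a fixed anchor-drug dose plus five library-drug doses (not always all listed) in √10 steps, and nuclei were counted after 5 days.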

SW 1573: the relative viability in experiment [1] (0.253 µM) turned out to be 1.05; in experiment [1] (0.8 µM) it was 1.09; in experiment [1] (2.53 µM), 1.06; in experiment [1] (8 µM), 0.759; with Veliparib (0.02 µM), 0.857; with Veliparib (0.06325 µM) it was 0.978. Moreover, the relative viability in the experiment with Veliparib (0.2 µM) turned out to be 0.917; with Veliparib (0.6325 µM) it was 0.885; with Veliparib (2 µM), 0.922; in experiment [2] (first compound 0.253 µM), 0.877; in experiment [2] (first compound 0.8 µM) it was 0.865; in experiment [2] (first compound 2.53 µM), 0.751. The relative viability in experiment [2] (first compound 8 µM) is 0.694.
